# Assay results published in PubChem BioAssay AID248 (DTP/NCI, 2004).
# Several values for one entry are separate records, joined by “and”; a condition that tells them apart may be missing. Identical values can stand only once. Toxic doses and inconclusive results are not listed.
# System: L1210 leukemia ip in BDF1 mice, survival T/C
# Assay: NCI In Vivo Anticancer Drug Screen. Data for tumor model L1210 Leukemia (intraperitoneal) in B6D2F1 (BDF1) mice
# Conditions: endpoint: mean survival time, higher = longer survival
# Outline: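 Survival endpoint. Drug-treated group vs vehicle group, expressed as T divided by C. Tumor passaged by transplantation.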
# [1] = dose: 75.0 mg/kg/injection, schedule: Q01DX001 (ip), vehicle: other
# [2] = dose: 100.0 mg/kg/injection, schedule: Q01DX009 (ip), vehicle: saline with Tween-80
# [3] = dose: 100.0 mg/kg/injection, schedule: Q04DX003 (ip), vehicle: saline with Tween-80
# [4] = dose: 200.0 mg/kg/injection, schedule: Q04DX003 (ip), vehicle: saline with Tween-80
# [5] = dose: 100.0 mg/kg/injection, schedule: Q01DX001 (ip), vehicle: carboxymethylcellulose (CMC)
# [6] = dose: 200.0 mg/kg/injection, schedule: Q01DX001 (ip), vehicle: carboxymethylcellulose (CMC)
# [7] = dose: 400.0 mg/kg/injection, schedule: Q01DX001 (ip), vehicle: carboxymethylcellulose (CMC)
# [8] = dose: 100.0 mg/kg/injection, schedule: Q04DX003 (ip), vehicle: saline
# [9] = dose: 200.0 mg/kg/injection, schedule: Q04DX003 (ip), vehicle: saline
# [10] = dose: 400.0 mg/kg/injection, schedule: Q04DX003 (ip), vehicle: saline
# [11] = dose: 100.0 mg/kg/injection, schedule: Q04DX002 (ip), vehicle: Klucel (hydroxypropylcellulose) (HPC)
# [12] = dose: 200.0 mg/kg/injection, schedule: Q04DX002 (ip), vehicle: Klucel (hydroxypropylcellulose) (HPC)
# [13] = dose: 400.0 mg/kg/injection, schedule: Q04DX002 (ip), vehicle: Klucel (hydroxypropylcellulose) (HPC)
# [14] = dose: 25.0 mg/kg/injection, schedule: Q01DX009 (ip), vehicle: saline with Tween-80
# [15] = dose: 25.0 mg/kg/injection, schedule: Q04DX003 (ip), vehicle: Klucel (hydroxypropylcellulose) (HPC)
# [16] = dose: 50.0 mg/kg/injection, schedule: Q04DX003 (ip), vehicle: Klucel (hydroxypropylcellulose) (HPC)
# [17] = dose: 100.0 mg/kg/injection, schedule: Q04DX003 (ip), vehicle: Klucel (hydroxypropylcellulose) (HPC)
# [18] = dose: 50.0 mg/kg/injection, schedule: Q01DX009 (ip), vehicle: saline
# [19] = dose: 200.0 mg/kg/injection, schedule: Q04DX003 (ip), vehicle: Klucel (hydroxypropylcellulose) (HPC)
# [20] = dose: 400.0 mg/kg/injection, schedule: Q04DX003 (ip), vehicle: Klucel (hydroxypropylcellulose) (HPC)
compound,measurement,setting,value
COc1ccc(N2C(=O)C3C(C2=O)C2c4ccccc4C3C3CCCCN32)cc1 (centres undefined),T/C,[1],103 % of control
O=C1c2ccccc2C(=O)N1C/C(Cl)=C/Cl,T/C,[2],92 % of control
same,T/C,[3],97 % of control
same,T/C,"dose: 200.0 mg/kg/injection, schedule: Q01DX009 (ip), vehicle: saline with Tween-80",93 % of control
same,T/C,[4],93 % of control
same,T/C,"dose: 400.0 mg/kg/injection, schedule: Q01DX009 (ip), vehicle: saline with Tween-80",91 % of control
same,T/C,"dose: 400.0 mg/kg/injection, schedule: Q04DX003 (ip), vehicle: saline with Tween-80",92 % of control
[N-]=[N+]=NCC1OC(n2cnc3c(NC=O)ncnc32)CC1C(=O)O (centres undefined),T/C,"dose: 50.0 mg/kg/injection, schedule: Q01DX001 (ip), vehicle: carboxymethylcellulose (CMC)",109 % of control
same,T/C,[5],101 % of control
same,T/C,[6],114 % of control
same,T/C,[7],95 % of control
CN(CC(C)(C)C(O)c1ccccc1)C(=O)c1ccccc1 (centres undefined),T/C,[8],102 % of control
same,T/C,[9],100 % of control
same,T/C,[10],96 % of control
CC12CCCCC1C=CC(=O)C2 (centres undefined),T/C,[1],89 % of control
same,T/C,"dose: 150.0 mg/kg/injection, schedule: Q01DX001 (ip), vehicle: other",94 % of control
CCOC(=O)CNc1cccc(Br)c1,T/C,[11],107 % of control
same,T/C,[12],100 % of control
same,T/C,[13],103 % of control
O=C(Nc1ccc(F)cc1)c1ccc(Cl)cc1Cl,T/C,"dose: 100.0 mg/kg/injection, schedule: Q01DX001 (ip), vehicle: saline",93 % of control
same,T/C,[8],97 % of control
same,T/C,"dose: 200.0 mg/kg/injection, schedule: Q01DX001 (ip), vehicle: saline",95 % of control
same,T/C,[9],107 % of control
same,T/C,"dose: 400.0 mg/kg/injection, schedule: Q01DX001 (ip), vehicle: saline",88 % of control
same,T/C,[10],100 % of control
Cc1ccc(N=NN(C)C)cc1,T/C,"dose: 12.5 mg/kg/injection, schedule: Q01DX009 (ip), vehicle: saline with Tween-80",97 % of control
same,T/C,[14],103 % of control
same,T/C,"dose: 25.0 mg/kg/injection, schedule: Q04DX003 (ip), vehicle: saline with Tween-80",105 % of control
same,T/C,"dose: 26.6 mg/kg/injection, schedule: Q01DX Z (ip), vehicle: methylcellulose (MC)",104 % of control
same,T/C,"dose: 31.25 mg/kg/injection, schedule: Q01DX001 (ip), vehicle: saline with Tween-80",108 % of control
same,T/C,"dose: 40.0 mg/kg/injection, schedule: Q01DX Z (ip), vehicle: methylcellulose (MC)",118 % of control
same,T/C,"dose: 50.0 mg/kg/injection, schedule: Q01DX009 (ip), vehicle: saline with Tween-80",103 % of control
same,T/C,"dose: 50.0 mg/kg/injection, schedule: Q04DX003 (ip), vehicle: saline with Tween-80",103 % of control
same,T/C,"dose: 62.5 mg/kg/injection, schedule: Q01DX001 (ip), vehicle: saline with Tween-80",110 % of control
same,T/C,"dose: 90.0 mg/kg/injection, schedule: Q01DX Z (ip), vehicle: methylcellulose (MC)",165 % of control
same,T/C,[2],104 % of control
same,T/C,[3],110 % of control
same,T/C,"dose: 180.0 mg/kg/injection, schedule: Q01DX Z (ip), vehicle: carboxymethylcellulose (CMC)",102 % of control
same,T/C,[4],109 % of control
CC12OC3C4C(=O)OC1C1OC4(C)C3C(=O)OC12,T/C,[8],102 % of control
same,T/C,[9],97 % of control
same,T/C,[10],95 % of control
c1ccc(C[As+](c2ccccc2)(c2ccccc2)c2ccccc2)cc1,T/C,"dose: 5.0 mg/kg/injection, schedule: Q01DX001 (ip), vehicle: saline",101 % of control
same,T/C,"dose: 6.25 mg/kg/injection, schedule: Q04DX002 (ip), vehicle: saline with Tween-80",97 % of control
same,T/C,"dose: 10.0 mg/kg/injection, schedule: Q01DX001 (ip), vehicle: saline",90 % of control
same,T/C,"dose: 12.5 mg/kg/injection, schedule: Q04DX002 (ip), vehicle: saline with Tween-80",86 % of control
same,T/C,"dose: 20.0 mg/kg/injection, schedule: Q01DX001 (ip), vehicle: saline",93 % of control
same,T/C,"dose: 25.0 mg/kg/injection, schedule: Q04DX002 (ip), vehicle: saline with Tween-80",101 % of control
same,T/C,"dose: 40.0 mg/kg/injection, schedule: Q01DX001 (ip), vehicle: saline",109 % of control
CCOC1OC(c2ccccc2)=NS(=O)(=O)C1(C)C (centres undefined),T/C,[11],103 % of control
same,T/C,[12],106 % of control
same,T/C,[13],103 % of control
C[n+]1c(/C=C/c2ccc3c(c2)OCO3)ccc2ccccc21,T/C,[14],108 % of control
same,T/C,[15],106 % of control
same,T/C,"dose: 33.0 mg/kg/injection, schedule: Q01DX009 (ip), vehicle: gum acacia",114 % of control
same,T/C,"dose: 50.0 mg/kg/injection, schedule: Q01DX009 (ip), vehicle: gum acacia",98 % of control
same,T/C,[16],101 % of control
same,T/C,[17],95 % of control and 89 % of control
CC(=O)Nc1ccc(CCCCc2cccc(C(=N)N)c2)cc1,T/C,"dose: 12.5 mg/kg/injection, schedule: Q01DX009 (ip), vehicle: saline",101 % of control
same,T/C,"dose: 12.5 mg/kg/injection, schedule: Q04DX003 (ip), vehicle: Klucel (hydroxypropylcellulose) (HPC)",102 % of control
same,T/C,"dose: 25.0 mg/kg/injection, schedule: Q01DX009 (ip), vehicle: saline",101 % of control
same,T/C,[15],100 % of control
same,T/C,[18],95 % of control
same,T/C,[16],102 % of control
CC1(C)C(=O)NC2(O)CCCC21 (centres undefined),T/C,"dose: 15.0 mg/kg/injection, schedule: Q01DX001 (ip), vehicle: saline",101 % of control
O=C(N[C@@H](c1ccccc1)[C@H](N=Cc1ccccc1)c1ccccc1)c1ccccc1,T/C,[18],93 % of control
same,T/C,"dose: 50.0 mg/kg/injection, schedule: Q04DX003 (ip), vehicle: saline",95 % of control
same,T/C,"dose: 100.0 mg/kg/injection, schedule: Q01DX009 (ip), vehicle: saline",90 % of control
same,T/C,[8],86 % of control and 92 % of control
same,T/C,"dose: 200.0 mg/kg/injection, schedule: Q01DX009 (ip), vehicle: saline",87 % of control
same,T/C,[9],94 % of control
same,T/C,"dose: 400.0 mg/kg/injection, schedule: Q01DX009 (ip), vehicle: saline",95 % of control and 87 % of control
same,T/C,[10],86 % of control and 92 % of control
Cc1c(NC(C)C)ccc(NC(C)C)c1C,T/C,"dose: 100.0 mg/kg/injection, schedule: Q04DX002 (sc), vehicle: olive oil, sesame oil, peanut oil",100 % of control
same,T/C,"dose: 200.0 mg/kg/injection, schedule: Q04DX002 (sc), vehicle: olive oil, sesame oil, peanut oil",100 % of control
Nc1ncc(C(=O)c2ccccc2)cc1Br,T/C,[17],97 % of control
same,T/C,[19],97 % of control
same,T/C,[20],97 % of control
Cc1cccc(NC(=O)Nc2cccc(C(F)(F)F)c2)c1,T/C,[5],97 % of control
same,T/C,[6],101 % of control
same,T/C,[7],97 % of control
O=[N+]([O-])c1ccc2nc(NCCCO)c3ccccc3c2c1,T/C,[17],120 % of control
same,T/C,[19],124 % of control
same,T/C,[20],96 % of control
